Source: patent US7495027B2, “3-aryl-4-hydroxyfuranone compounds and the human and animal health use thereof” (Wyeth, priority 2003, dated 2009)
≈ marks a conversion by molar mass, not a printed value. Read-outs that look alike come from different tables or passages of the source.

Key:
[1] = Toxicity in treated gerbils (deaths or significant weight loss); type: in vivo; design: key: +: Toxicity is indicated for those groups having one or more animals expired; conditions: single oral dose of 50 mg/kg, groups of 3
Description: In this evaluation, gerbils are infected with Trichostrongylus columbriformis infective larvae at a concentration of approximately 800 L3/mL. Larvae for gerbil infections are cultured from feces from sheep previously infected with T. colubriformis. One week post infection, test compounds are administered by gavage as a single oral dose of 50 mg/kg of body weight. For each group of 3 gerbils, 10 mg of test compound are dissolved in 2 mL of PEG 400:DMSO (1:2 v/v) and each animal is administered the test solution at a rate of 0.1 mL/10 g of body weight. […] All animals are observed daily for morbidity and mortality. Four days post-treatment, all animals are weighed and necropsied. Worm counts are conducted with the use of stereoscopes and counters.

[2] = tested on: Trichostrongylus columbriformis; experiment: In vivo efficacy against T. colubriformis in infected gerbils; conditions: gerbils infected with T. colubriformis; single oral dose of 50 mg/kg by gavage; worm counts four days post-treatment; % mortality as compared to negative control
How it was run: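 Gerbils infected with ~800 L3/mL larvae were treated one week later by gavage with a single 50 mg/kg oral dose in PEG 400:DMSO (1:2 v/v), 3 animals per group. Necropsy four days post-treatment, with worms counted under stereoscopes.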

[3] = target: E. coli Uridine-diphosphate-N-acetylmuramoyl-L-alanine: D-glutamate liease, MurD (Escherichia coli, UniProt P14900); experiment: biochemical; conditions: (E) E. coli enzyme
E. coli Uridine-diphosphate-N-acetylmuramoyl-L-alanine: D-glutamate liease, MurD, sequence (P14900 whole entry): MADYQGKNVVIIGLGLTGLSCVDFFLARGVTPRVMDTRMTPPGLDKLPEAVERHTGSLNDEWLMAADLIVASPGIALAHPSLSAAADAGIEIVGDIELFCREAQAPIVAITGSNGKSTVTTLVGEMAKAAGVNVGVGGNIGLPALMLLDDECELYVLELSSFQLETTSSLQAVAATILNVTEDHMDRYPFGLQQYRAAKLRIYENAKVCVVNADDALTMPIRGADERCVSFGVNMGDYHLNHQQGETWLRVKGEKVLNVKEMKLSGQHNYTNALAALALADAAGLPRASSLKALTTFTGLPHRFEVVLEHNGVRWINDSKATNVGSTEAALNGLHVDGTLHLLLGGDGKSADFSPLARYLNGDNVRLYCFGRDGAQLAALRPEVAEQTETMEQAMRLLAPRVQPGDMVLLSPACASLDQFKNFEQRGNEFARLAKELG
How it was run: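 Compound working solutions reach 100 μg/mL in 50 mM Tris/HCl (pH 8.5) after dilution of 10 mg/mL DMSO stocks; final level in the well not given here. Reaction buffer finals: 2 mM ATP, 50 mM MgCl2, 83 mM Tris/HCl, pH 8.0.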

[4] = target: E. coli UDP-N-acetylglucosamine enolpyruvoyl transferase, MurA (Escherichia coli, UniProt P0A749); experiment: biochemical; conditions: (E) E. coli enzyme
E. coli UDP-N-acetylglucosamine enolpyruvoyl transferase, MurA, sequence (P0A749 whole entry): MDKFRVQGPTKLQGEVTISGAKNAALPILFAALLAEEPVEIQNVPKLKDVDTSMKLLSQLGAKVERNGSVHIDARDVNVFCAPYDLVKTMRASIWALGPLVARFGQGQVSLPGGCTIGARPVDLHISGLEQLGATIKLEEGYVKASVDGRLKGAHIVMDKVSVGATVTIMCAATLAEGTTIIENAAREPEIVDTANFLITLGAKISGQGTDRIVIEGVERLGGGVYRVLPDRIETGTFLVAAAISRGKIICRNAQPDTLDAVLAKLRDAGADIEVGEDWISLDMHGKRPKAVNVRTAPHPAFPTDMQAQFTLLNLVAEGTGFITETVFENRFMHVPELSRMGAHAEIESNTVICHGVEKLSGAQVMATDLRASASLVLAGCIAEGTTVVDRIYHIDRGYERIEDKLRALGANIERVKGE
How it was run: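 Enzyme in 50 mM Tris/HCl pH 8.0 with 5 mM DTT and 20% glycerol was pre-incubated 10 min at 37° C with test compound in DMSO/water. Tris/BME and assay buffer then started the 1 hr, 37° C reaction, with a baseline 340 nm reading taken at start. Stop solution followed, and colour developed 30 minutes.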

[5] = target: E. coli Enopyruvyl-UPD-N-acetylglucosamine reductase, Mur B (Escherichia coli, UniProt P08373); experiment: biochemical; conditions: (E) E. coli enzyme; read-out: MurB IC50 (converted)
E. coli Enopyruvyl-UPD-N-acetylglucosamine reductase, Mur B, sequence (P08373 whole entry): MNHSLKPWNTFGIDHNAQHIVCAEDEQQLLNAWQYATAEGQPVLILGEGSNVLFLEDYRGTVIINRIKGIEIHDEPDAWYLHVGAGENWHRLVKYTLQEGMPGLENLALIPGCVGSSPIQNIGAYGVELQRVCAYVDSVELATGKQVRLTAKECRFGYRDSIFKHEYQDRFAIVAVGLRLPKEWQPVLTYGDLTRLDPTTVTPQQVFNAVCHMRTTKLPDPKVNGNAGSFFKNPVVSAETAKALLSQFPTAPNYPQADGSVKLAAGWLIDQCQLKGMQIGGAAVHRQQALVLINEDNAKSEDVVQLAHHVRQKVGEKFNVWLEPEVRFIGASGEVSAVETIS

[6] = tested on: enterococci; experiment: Minimum inhibitory concentration, microdilution broth method, enterococci; type: cell-based; conditions: Mueller-Hinton broth, 18-22 hours at 35° C.; for MIC: Enterococcus faecalis
How it was run: (§1)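 MIC by microdilution, NCCLS M7-A5. Media: MH broth (staph, enterococci); MH + 5% lysed horse blood (strep). Strains incl. methicillin-, penicillin- and/or vancomycin-resistant clinical isolates.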

[7] = target: E. coli Uridine-diphosphate-N-acetvimuramoyl: L-alanine lipase, MurC (Escherichia coli, UniProt P17952); experiment: Inhibitory activity against MurC (E. coli); type: biochemical; conditions: (E) E. coli enzyme; read-out: MurC IC50 (converted)
E. coli Uridine-diphosphate-N-acetvimuramoyl: L-alanine lipase, MurC, sequence (P17952 whole entry): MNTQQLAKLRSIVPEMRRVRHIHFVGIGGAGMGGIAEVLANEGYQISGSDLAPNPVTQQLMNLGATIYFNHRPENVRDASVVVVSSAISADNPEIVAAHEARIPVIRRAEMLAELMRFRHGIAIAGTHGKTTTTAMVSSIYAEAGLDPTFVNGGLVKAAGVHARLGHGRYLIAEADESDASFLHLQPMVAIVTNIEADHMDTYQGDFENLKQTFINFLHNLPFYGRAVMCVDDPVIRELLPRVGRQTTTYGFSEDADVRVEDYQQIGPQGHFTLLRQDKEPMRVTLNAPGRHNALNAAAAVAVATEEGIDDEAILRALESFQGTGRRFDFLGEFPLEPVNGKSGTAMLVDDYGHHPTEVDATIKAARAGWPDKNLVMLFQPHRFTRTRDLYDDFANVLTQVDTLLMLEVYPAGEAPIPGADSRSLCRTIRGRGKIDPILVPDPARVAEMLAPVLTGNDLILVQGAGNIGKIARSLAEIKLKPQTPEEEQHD

[8] = tested on: Streptococci; experiment: Minimum inhibitory concentration, microdilution broth method, streptococci; type: cell-based; conditions: Mueller-Hinton broth with 5% horse blood, 18-22 hours at 35° C.; for MIC: S. pneumo GC 1894
How it was run: as §1

[9] = tested on: staphylococci; experiment: Minimum inhibitory concentration, microdilution broth method, staphylococci; type: cell-based; conditions: Mueller-Hinton broth, 18-22 hours at 35° C.; for MIC: Staphylococcus aureus
How it was run: as §1

[10] = target: T1, S. aureus Uridine-diphosphate-N-acetylmuramoyl-L-alanine: D-glutamate liease, MurD (Staphylococcus aureus, UniProt Q2FZ92); experiment: biochemical; conditions: (S) S. aureus enzyme
T1 sequence (Q2FZ92 1-449): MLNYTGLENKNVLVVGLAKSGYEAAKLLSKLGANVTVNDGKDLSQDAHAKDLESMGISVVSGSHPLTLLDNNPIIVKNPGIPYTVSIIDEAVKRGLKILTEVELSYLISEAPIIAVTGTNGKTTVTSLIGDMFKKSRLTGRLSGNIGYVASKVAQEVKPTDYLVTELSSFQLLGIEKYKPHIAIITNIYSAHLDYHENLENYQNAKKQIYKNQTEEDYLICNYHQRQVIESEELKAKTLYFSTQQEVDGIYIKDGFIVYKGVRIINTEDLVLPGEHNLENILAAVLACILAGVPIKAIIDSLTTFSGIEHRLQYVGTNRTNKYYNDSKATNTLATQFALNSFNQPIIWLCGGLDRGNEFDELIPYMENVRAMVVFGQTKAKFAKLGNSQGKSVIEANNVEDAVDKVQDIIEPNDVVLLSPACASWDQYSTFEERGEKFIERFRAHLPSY
How it was run: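 Test solutions, 10 mg/mL stocks in DMSO, were brought to 100 μg/mL with 50 mM Tris/HCl (pH 8.5). Their inhibition of MurD, the enzyme of the fourth cell wall biosynthesis step, was measured.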

[11] = E. faecalis GC 2242, read-out: MIC E. faecalis GC 2242
[12] = E. faecalis GC 4555, read-out: MIC E. faecalis GC 4555
[13] = S. aureus GC 1131, read-out: MIC S. aureus GC 1131
[14] = S. aureus GC 4543, read-out: MIC S. aureus GC 4543

| SMILES | Toxicity [1] | Mortality [2] | IC50 [3] | IC50 [4] | IC50 [5] | MIC [6, 11] | MIC [6, 12] | melting point | IC50 [7] | MIC [8] | MIC [9, 13] | MIC [9, 14] | IC50 [10] | MIC E. faecalis GC 2242 ([6]; E. faecalis GC 2242) | MIC E. faecalis GC 4555 ([6]; E. faecalis GC 4555) | MIC S. pneumo GC 1894 [8] | MIC S. aureus GC 1131 ([9]; S. aureus GC 1131) | MIC S. aureus GC 4543 ([9]; S. aureus GC 4543) |
| --- | --- | --- | --- | --- | --- | --- | --- | --- | --- | --- | --- | --- | --- | --- | --- | --- | --- | --- |
| COc1cc(/C=C2\OC(=O)C(c3cccc(Cl)c3)=C2O)ccc1-c1ccccc1C(F)(F)F | + | 29.50% |  |  |  |  |  |  |  |  |  |  |  |  |  |  |  |  |
| Cc1ccc(/C=C2\OC(=O)C(c3cccc(C(F)(F)F)c3)=C2O)s1 [Example 12] |  |  | > 71 µM | > 71 µM | > 71 µM | 64 µg/mL (≈ 182 µM) | > 128 µg/mL | 249 to 251 °C | 42.6 µM | 2 µg/mL (≈ 5.68 µM) | 64 µg/mL (≈ 182 µM) | 64 µg/mL (≈ 182 µM) |  |  |  |  |  |  |
| Cc1ccc(/C=C2\OC(=O)C(c3ccc4ccccc4c3)=C2O)s1 [Example 41] |  |  | > 74.8 µM | > 74.8 µM | > 74.8 µM | 32 µg/mL (≈ 95.7 µM) | 64 µg/mL (≈ 191 µM) | 144 to 145 °C (dec.) | 38.9 µM | 32 µg/mL (≈ 95.7 µM) | 32 µg/mL (≈ 95.7 µM) | 64 µg/mL (≈ 191 µM) |  |  |  |  |  |  |
| O=C1O/C(=C\c2cccc3ccccc23)C(O)=C1c1ccc2ccccc2c1 [Example 44] |  |  | > 68.6 µM | 49.4 µM | 19.2 µM | 8 µg/mL (≈ 22 µM) | 16 µg/mL (≈ 43.9 µM) | 205 to 207 °C | 16.5 µM | 1 µg/mL (≈ 2.74 µM) | 4 µg/mL (≈ 11 µM) | 8 µg/mL (≈ 22 µM) |  |  |  |  |  |  |
| O=C1O/C(=C\c2ccc(Cl)cc2)C(O)=C1c1cccc2ccccc12 [Example 46] |  |  | > 71.7 µM | > 71.7 µM | > 71.7 µM | 64 µg/mL (≈ 183 µM) | 32 µg/mL (≈ 91.7 µM) | 235 to 237 °C | 45.9 µM | 16 µg/mL (≈ 45.9 µM) | 64 µg/mL (≈ 183 µM) | 32 µg/mL (≈ 91.7 µM) |  |  |  |  |  |  |
| O=C1O/C(=C\c2ccc(-c3ccccc3)cc2)C(O)=C1c1ccc(Cl)cc1Cl [Example 65] |  |  | 58.6 µM | > 61.1 µM | 24.4 µM | 4 µg/mL (≈ 9.77 µM) | 16 µg/mL (≈ 39.1 µM) | 252 to 256 °C | 7.33 µM | < 0.125 µg/mL | 8 µg/mL (≈ 19.5 µM) | 8 µg/mL (≈ 19.5 µM) | 36.7 µM |  |  |  |  |  |
| O=C1O/C(=C\c2ccc(-c3ccccc3)cc2)C(O)=C1c1ccc(Cl)c(Cl)c1 [Example 66] |  |  | 51.3 µM | 7.33 µM | 4.89 µM | 0.5 µg/mL (≈ 1.22 µM) | 2 µg/mL (≈ 4.89 µM) | 265 to 269 °C | 7.33 µM | < 0.125 µg/mL | 2 µg/mL (≈ 4.89 µM) | 1 µg/mL (≈ 2.44 µM) | 12.2 µM |  |  |  |  |  |
| O=C1O/C(=C\c2ccc(-c3ccccc3)cc2)C(O)=C1c1cc(Cl)cc(Cl)c1 [Example 68] |  |  | 26.9 µM | 7.33 µM | 7.33 µM |  |  | 232 to 235 °C | 22 µM |  |  |  | 26.9 µM | 1 µg/mL (≈ 2.44 µM) | 2 µg/mL (≈ 4.89 µM) | <0.125 µg/mL | 2 µg/mL (≈ 4.89 µM) | 2 µg/mL (≈ 4.89 µM) |
| O=C1O/C(=C\c2ccc3ccccc3c2)C(O)=C1c1ccc(-c2ccccc2)cc1 [Example 103] |  |  | > 64 µM | > 64 µM | 15.4 µM | 32 µg/mL (≈ 82 µM) | 64 µg/mL (≈ 164 µM) | 266 to 270 °C | 41 µM | 0.5 µg/mL (≈ 1.28 µM) | > 128 µg/mL | 64 µg/mL (≈ 164 µM) |  |  |  |  |  |  |
| O=C1O/C(=C\c2ccccc2C(F)(F)F)C(O)=C1c1ccc(-c2ccccc2)c(F)c1 [Example 107] |  |  | > 58.6 µM | 32.8 µM | 9.38 µM | 2 µg/mL (≈ 4.69 µM) | 8 µg/mL (≈ 18.8 µM) | 224 to 228 °C | 14.1 µM | 0.25 µg/mL (≈ 0.586 µM) | 4 µg/mL (≈ 9.38 µM) | 2 µg/mL (≈ 4.69 µM) | 39.9 µM |  |  |  |  |  |
| O=C1O/C(=C\c2cccc(C(F)(F)F)c2)C(O)=C1c1cccc(-c2ccccc2)c1 [Example 108] |  |  | > 61.2 µM | 46.5 µM | 24.5 µM | 2 µg/mL (≈ 4.9 µM) | 8 µg/mL (≈ 19.6 µM) | 210 to 212 °C | 14.7 µM | 1 µg/mL (≈ 2.45 µM) | 2 µg/mL (≈ 4.9 µM) | 2 µg/mL (≈ 4.9 µM) | 36.7 µM |  |  |  |  |  |
| N#Cc1ccc(C2=C(O)C(=Cc3ccc(-c4ccc(Cl)cc4)cc3)OC2=O)cc1 [R=H; R1=4-CN—C6H4; R2=4-(4′-Cl-biphenyl)] | + | 64.33% |  |  |  |  |  |  |  |  |  |  |  |  |  |  |  |  |
| N#Cc1ccc(C2=C(O)/C(=C/c3ccc(-c4ccc(C#N)cc4)cc3)OC2=O)cc1 [R=H; R1=4-CN—C6H4; R2=4-(4′CN-biphenyl)] | + | 88.60% |  |  |  |  |  |  |  |  |  |  |  |  |  |  |  |  |
| N#Cc1ccc(/C=C2\OC(=O)C(c3ccc(C#N)cc3)=C2O)cc1 [R=H; R1=4-CN—C6H4; R2=4-CN—C6H4] | + | 62.43% |  |  |  |  |  |  |  |  |  |  |  |  |  |  |  |  |
| N#Cc1ccc(C2=C(O)C(=Cc3ccc(Cl)cc3)OC2=O)cc1 [R=H; R1=4-CN—C6H4; R2=4-Cl—C6H4] | + | 90.20% |  |  |  |  |  |  |  |  |  |  |  |  |  |  |  |  |
| N#Cc1ccc(/C=C2\OC(=O)C(c3ccc(Cl)cc3)=C2O)cc1 [R=H; R1=4-Cl—C6H4; R2=4-CN—06H4] | + | 84.54% |  |  |  |  |  |  |  |  |  |  |  |  |  |  |  |  |
